From article PMC3435281 (PLoS ONE, 2012) come the findings set out here.

In data set [1] the test system is AHR^fxneo/fxneo and AHR^fxneo/+ pups. As to the kind of experiment: In utero exposure, closure of ductus venosus (DV). In kind it is in vivo, mouse. The note with it: dams 110 mg/kg i.p. at E18.5, examined at 4 weeks. Here is the method: We have previously shown that genetically altered mice that express only 10% of the AHR display a patent ductus venosus (DV) in the liver in nearly all cases. We additionally identified that in utero activation of the receptor in the hypomorphs with TCDD successfully closed the DV [5]. […] At 4 weeks of age, the pups were sacrificed, and DV status was examined by hepatic perfusion with trypan blue.
Timed mating of female AHR^fxneo/+ mice to male AHR^fxneo/fxneo mice was performed. […] When the pups were 4 weeks of age, the status of the DV was determined by hepatic perfusion with Trypan Blue as previously described. Briefly, each mouse was anesthetized and its liver was flushed with PBS through the cannulated portal vein. […] Trypan blue was injected through the portal vein until the liver visibly turned blue (in the case of a closed DV) or until the dye was seen exiting the IVC without perfusing the liver (when the DV is open).

Another data set relates to AHR^−/− splenocytes. As to the kind of experiment: CYP1A1 and IDO mRNA in AHR^−/− splenocytes. The format is cell-based, mouse. The settings on record: null cells, SU5416 500 nM or IFN-γ 100 ng/ml, 4 hours. The text has this:
An important role for the AHR in the immune system, and specifically T-cell differentiation, has been recognized and continues to be characterized in the literature, [7]. Some ligands of the AHR have the ability to enhance Treg differentiation from naïve T-cells (TCDD, kynurenine), while others direct differentiation towards Th17 effector cells (FICZ). […] IDO has long been known to play a role in Treg generation, and may be central to the mechanism of Dendritic Cell (DC)-directed Treg generation. We as well as others have previously shown that IDO mRNA can be induced by ligands of the AHR, and that the mechanisms of IDO-directed Treg generation may depend on the AHR [25]. […] As described in the Methods, naïve T-cells were sorted using magnetic bead separation, and placed in culture for 5 days with allogeneic pDCs separated from BALB/C mice. SU5416, TCDD, FICZ, or media alone was added at the start of culture. After 5 days, cells were collected and mRNA harvested for qPCR analysis of IDO and FoxP3. […] We used a dose of 2 ng/ml TGF-β, which in our hands has been a suboptimal dose for Treg generation (4 ng/ml has been optimal in our hands). […]
(§1) A. Spleens were harvested from mice and processed in the standard fashion. […] Same assay as A, but mRNA for CYP1B1 and IDO were measured. […] Same assay as in C, but IDO mRNA was assessed. * - p≤0.05. * - p≤0.01. […]

The test system of a further data set is naïve CD4^+ T cells. As to the kind of experiment: Naïve CD4+ T cells with TGF-β, flow cytometry of FoxP3 and CD39. The format is cell-based, mouse. The note with it: TGF-β 2 ng/ml with SU5416 250 nM, day 3.
Source text: An important role for the AHR in the immune system, and specifically T-cell differentiation, has been recognized and continues to be characterized in the literature, [7]. Some ligands of the AHR have the ability to enhance Treg differentiation from naïve T-cells (TCDD, kynurenine), while others direct differentiation towards Th17 effector cells (FICZ). […] IDO has long been known to play a role in Treg generation, and may be central to the mechanism of Dendritic Cell (DC)-directed Treg generation. We as well as others have previously shown that IDO mRNA can be induced by ligands of the AHR, and that the mechanisms of IDO-directed Treg generation may depend on the AHR [25]. […] As described in the Methods, naïve T-cells were sorted using magnetic bead separation, and placed in culture for 5 days with allogeneic pDCs separated from BALB/C mice. […]
as §1
Naive CD4^+ T cells were isolated using the CD4^+ CD62L Isolation Kit (Miltenyi Biotec, Auburn, CA) and an autoMACS. […] For quantitative PCR (qPCR) analysis, 2–5 × 10^5 cells were cultured in each well of a 96-well round-bottom plate coated with 0.5 µg/ml anti-CD3 and anti-CD28 overnight and then washed with PBS twice before seeding the cells. […]

In the case of `Cc1cc(C)c(C=C2C(=O)Nc3ccccc32)[nH]1` [SU5416, 3-(3,5-dimethyl-1H-pyrrol-2-ylmethylene)-1,3-dihydro-indole-2-one], the “closed DV, percent of pups” value in data set [1] (AHR^fxneo/+ pups) turned out to be 100%. Further, in data set [1] (AHR^fxneo/fxneo pups), the “closed DV, percent of pups” value amounted to 59%. The “IDO mRNA induction” value with AHR^−/− splenocytes is on record as “not null cells”. In addition, in the data set on naïve CD4^+ T cells, the “CD39 in the FoxP3^+ T cells” value was “upregulated” and the “FoxP3 protein expression by flow cytometry” value is “significantly enhanced”.
